Source: patent publication US20240358692A1, “TREATMENT OF SCLERODERMA” (Aisa Pharma, Inc., priority 2023, published 2024)

Columns and labels:
[1] = tested on: participants with SSc-RP; assay: SHAQ - Visual Analog Scale - Breathing Problems; format: in vivo, human; conditions: pooled cilnidipine 10 mg and 20 mg arms (combination: + tadalafil 5 mg)
Excerpt: (§1) The standard, validated, patient reported outcome measures tool for SSc patients, the Scleroderma Health Assessment Questionnaire (SHAQ), will be used to assess the participant qualify of life. Details are attached in the Appendix. The participant quality of life will be scored, and a disability index calculated for each questionnaire completed by the patient at Screening and each in-clinic visit. The absolute change in participant quality of life from baseline to the end of each dosing period will be calculated similar to frequency data as before.
(§2) The standard, validated, patient reported outcome measures tool for SSc patients, the SHAQ, was collected at the time points specified in the study schedules (FIG. 2 and FIGS. 4A and 4B) to assess the participant's quality of life. The SHAQ included a Raynaud's VAS that will also be reported separately.

[2] = tested on: participants with SSc-RP; assay: SHAQ - Visual Analog Scale - Overall Disease Severity; format: in vivo, human; conditions: for % change overall SSc Disease Severity: SHAQ, mITT Part A
Excerpt: as §1, §2

[3] = Any Cilnidipine (N = 17), Day 12, PP Population, Part A
[4] = Pooled Cilnidipine 10 mg and Cilnidipine 10 mg + Tadalafil 5 mg, PP, Part A
[5] = Pooled Cilnidipine 20 mg and Cilnidipine 20 mg + Tadalafil 5 mg, PP, Part A
[6] = Pooled Cilnidipine (N = 7), Day 12, Modified ITT Population - Part A
[7] = Pooled Cilnidipine (N = 8), Day 12, PP Population, Part A

Question: How did the “VAS Breathing Problems Percent Change from Baseline Q1” value [1] turn out when `COCCOC(=O)C1=C(C)NC(C)=C(C(=O)OC/C=C/c2ccccc2)C1c1cccc([N+](=O)[O-])c1` (stereo not shown) [Cilnidipine] was run?
Answer: −83.33%

Question: What about the “VAS Breathing Problems Percent Change from Baseline Q3” value [1] of the same molecule?
Answer: 67.00%

Question: What about the “SHAQ Visual Analogue Scale - Overall Disease Severity, Change from Baseline, Mean (SD)” value [2, 3] of the same molecule?
Answer: −0.991 (1.0921)

Question: What about the “SHAQ Visual Analogue Scale - Overall Disease Severity, Change from Baseline, Median” value [2, 3] of the same molecule?
Answer: −1.100

Question: What about the “SHAQ Visual Analogue Scale - Overall Disease Severity, In-Clinic Visit (Day 12), Mean (SD)” value [2, 3] of the same molecule?
Answer: 2.203 (2.1532)

Question: What about the “SHAQ Visual Analogue Scale - Overall Disease Severity, In-Clinic Visit (Day 12), Median” value (“SHAQ Visual Analogue Scale … (Day 12), Median” below) [2, 3] of the same molecule?
Answer: 1.400

Question: What about the “SHAQ Visual Analogue Scale - Overall Disease Severity, Percent Change from Baseline, Mean (SD)” value [2, 3] of the same molecule?
Answer: −36.33 (43.497) %

Question: What about the “SHAQ Visual Analogue Scale - Overall Disease Severity, Percent Change from Baseline, Median” value [2, 3] of the same molecule?
Answer: −42.89%

Question: What about the “% change overall SSc Disease Severity” value ([2]; Cilnidipine 20 mg (n = 3)) of the same molecule?
Answer: −63% (i.e.,

Question: What about the “SHAQ Overall Scleroderma Disease Severity, mean % change” value ([2]; Cilnidipine 20 mg (n = 3), minus = improvement, Table A*) of the same molecule?
Answer: −63%

Question: And the “SHAQ VAS Overall Disease Severity, Change from Baseline, Max” value [2, 4]?
Answer: 1.90

Question: What about the “SHAQ VAS Overall Disease Severity, Change from Baseline, Mean (SD)” value [2, 4] of the same molecule?
Answer: −0.606 (1.1663)

Question: What about the “SHAQ VAS Overall Disease Severity, Change from Baseline, Min” value [2, 4] of the same molecule?
Answer: −1.90

Question: And the “SHAQ VAS Overall Disease Severity, Change from Baseline, Q1” value [2, 4]?
Answer: −1.500

Question: And the “SHAQ VAS Overall Disease Severity, Change from Baseline, Q3” value [2, 4]?
Answer: −0.300

Question: And the “SHAQ VAS Overall Disease Severity, Day 12, Max” value [2, 4]?
Answer: 6.00

Question: And the “SHAQ VAS Overall Disease Severity, Day 12, Min” value [2, 4]?
Answer: 0.00

Question: What about the “SHAQ VAS Overall Disease Severity, Day 12, Q1” value [2, 4] of the same molecule?
Answer: 0.800

Question: What about the “SHAQ VAS Overall Disease Severity, Day 12, Q3” value [2, 4] of the same molecule?
Answer: 3.800

Question: What about the “SHAQ VAS Overall Disease Severity, Percent Change from Baseline, Max” value [2, 4] of the same molecule?
Answer: 100.0

Question: And the “SHAQ VAS Overall Disease Severity, Percent Change from Baseline, Mean (SD)” value [2, 4]?
Answer: −24.68 (57.343)

Question: What about the “SHAQ VAS Overall Disease Severity, Percent Change from Baseline, Min” value [2, 4] of the same molecule?
Answer: −100.0

Question: What about the “SHAQ VAS Overall Disease Severity, Percent Change from Baseline, Q1” value [2, 4] of the same molecule?
Answer: −51.01

Question: What about the “SHAQ VAS Overall Disease Severity, Percent Change from Baseline, Q3” value [2, 4] of the same molecule?
Answer: −16.76

Question: What about the “SHAQ Visual Analogue Scale - Overall Disease Severity, Change from Baseline, Median” value ([2]; Pooled Cilnidipine 20 mg and Cilnidipine 20 mg + Tadalafil 5 mg (N = 7), Day 12, Modified ITT Population - Part A) of the same molecule?
Answer: −1.500

Question: What about the “SHAQ Visual Analogue Scale … (Day 12), Median” value ([2]; Pooled Cilnidipine 20 mg and Cilnidipine 20 mg + Tadalafil 5 mg (N = 7), Modified ITT Population - Part A) of the same molecule?
Answer: 1.200

Question: And the “SHAQ VAS Overall Disease Severity, Change from Baseline, Max” value [2, 5]?
Answer: −0.40

Question: What about the “SHAQ VAS Overall Disease Severity, Change from Baseline, Min” value [2, 5] of the same molecule?
Answer: −3.10

Question: And the “SHAQ VAS Overall Disease Severity, Change from Baseline, Q1” value [2, 5]?
Answer: −1.750

Question: What about the “SHAQ VAS Overall Disease Severity, Change from Baseline, Q3” value [2, 5] of the same molecule?
Answer: −0.650

Question: What about the “SHAQ VAS Overall Disease Severity, Day 12, Max” value [2, 5] of the same molecule?
Answer: 7.30

Question: And the “SHAQ VAS Overall Disease Severity, Day 12, Median” value [2, 5]?
Answer: 1.300

Question: And the “SHAQ VAS Overall Disease Severity, Day 12, Min” value [2, 5]?
Answer: 0.50

Question: And the “SHAQ VAS Overall Disease Severity, Day 12, Q1” value [2, 5]?
Answer: 0.800

Question: And the “SHAQ VAS Overall Disease Severity, Day 12, Q3” value [2, 5]?
Answer: 1.750

Question: And the “SHAQ VAS Overall Disease Severity, Percent Change from Baseline, Max” value [2, 5]?
Answer: −9.9

Question: And the “SHAQ VAS Overall Disease Severity, Percent Change from Baseline, Min” value [2, 5]?
Answer: −76.2

Question: And the “SHAQ VAS Overall Disease Severity, Percent Change from Baseline, Q1” value [2, 5]?
Answer: −64.44

Question: What about the “SHAQ VAS Overall Disease Severity, Percent Change from Baseline, Q3” value [2, 5] of the same molecule?
Answer: −36.22

Question: And the “SHAQ Visual Analogue Scale - Overall Disease Severity, Change from Baseline, Mean” value [2, 6]?
Answer: −1.214

Question: What about the “SHAQ Visual Analogue Scale - Overall Disease Severity, Percent Change from Baseline, Mean” value [2, 6] of the same molecule?
Answer: −59.80%

Question: And the “SHAQ Visual Analogue Scale - Overall Disease Severity, Percent Change from Baseline, Median” value [2, 6]?
Answer: −55.86%

Question: And the “SHAQ Visual Analogue Scale - Overall Disease Severity, In-Clinic Visit (Day 12), Mean” value ([2]; Pooled Cilnidipine (N = 7), Modified ITT Population - Part A)?
Answer: 1.486

Question: What about the “SHAQ Visual Analogue Scale - Overall Disease Severity, In-Clinic Visit (Day 12), Mean (SD)” value [2, 7] of the same molecule?
Answer: 1.475 (1.6430)

Question: And the “SHAQ Visual Analogue Scale … (Day 12), Median” value [2, 7]?
Answer: 1.300

Question: And the “% change overall SSc Disease Severity” value ([2]; Pooled Cilnidipine (n = 7))?
Answer: −60% (i.e.,

Question: What about the “SHAQ VAS Overall Disease Severity, Change from Baseline, Max” value ([2]; Pooled Cilnidipine, PP, Part A) of the same molecule?
Answer: 0.20

Question: What about the “SHAQ VAS Overall Disease Severity, Change from Baseline, Mean (SD)” value ([2]; Pooled Cilnidipine, PP, Part A) of the same molecule?
Answer: −1.450 (0.9928)

Question: What about the “SHAQ VAS Overall Disease Severity, Change from Baseline, Median” value ([2]; Pooled Cilnidipine, PP, Part A) of the same molecule?
Answer: −1.550
